Each structure is given as a SMILES string.

This test has as its system MIA PaCa-2 cells. Description: Alamar blue cell proliferation assay, pancreatic cancer cells. It is filed as cell-based, human. Particulars: carboplatin 0.2, 1, 2.5, 5 and 10 μg/mL, 72 h incubation. The text has this: All lines used were adherent human cell lines. • (i) Pancreatic cancer cell line: MIA PaCa-2 • Source: Available from ATCC (ATCC® CRL1420™) • Complete growth medium: Eagle's Minimum Essential Medium containing 5% fetal bovine serum and 5% cosmic calf serum • (ii) Human umbilical vein endothelial cells: HUVEC • Source: Available from ATCC (ATCC® PCS-100-010™) or Lonza (single or pooled donor) • Complete growth medium: EGM-2 BulletKit (Lonza) • (iii) Human foreskin fibroblasts: HFF-1 • Source: Available from ATCC (ATCC® SCRC-1041™) • Complete growth medium: Dulbecco's Modified Eagle's Medium containing 15% fetal bovine serum • (iv) Immortalized pancreas duct epithelial-like cells: hTERT-HPNE • Source: Available from ATCC (ATCC® CRL4023™) • Complete growth medium: Specialty Dulbecco's Modified Eagle's Medium composition, protocol available from ATCC • (v) Primary pancreatic stellate cells: Panc stellate • Source: Available from Applied Biological Materials (T4215) • Complete growth medium: Prigrow I containing 10% fetal bovine serum.
Each cell line was adherent in a growth flask, incubated at 37° C. and 5% CO2; de-attached cell from growth flask using Trypsin-EDTA solution (0.25% Trypsin, 0.53 mM EDTA); and counted by Trypan blue staining standard protocol. […]
A standard cell proliferation assay was used, the Alamar blue assay, to assess quantification of viable cells. […]

Consider `N.N.O=C([O-])C1(C(=O)[O-])CCC1.[Pt+2]` [carboplatin], for which the “human pancreatic cancer cell proliferation (positive control)” value is on record as “dose dependent cell growth inhibition”.

The record behind these values is patent publication US10610590B2, “Electrochemical plasma activated aqueous chemotherapeutics” (Symbios Technologies, Inc., priority 2016, dated 2020).
